From patent US9216981B2, “Purinylpyridinylamino-2,4-difluorophenyl sulfonamide derivative, pharmaceutically acceptable salt thereof, preparation method thereof, and pharmaceutical composition with inhibitory activity against Raf kinase, containing same as active ingredient” (Medpacto, Inc., priority 2010, dated 2015)

How the values were obtained:
B-Raf = B-Raf (Homo sapiens (Human), UniProt P15056); assay: B-Raf kinase activity (B-Raf/MEK1/MAPK2 cascade, MBP phosphorylation, [γ-32P]ATP); format: biochemical; conditions: activated B-Raf, inactivated MEK1, inactivated MAPK2, 30° C., 30 minutes, read-out: B-Raf Enzyme Activity
Method: To check the B-Raf kinase inhibitory activity of the compounds of the present invention, the following experiments were conducted.
20 μl of diluting solvent (20 mM MOPS, pH 7.2, 25 mM β-glycerol phosphate, 5 mM EGTA, 1 mM sodium orthovanadate, 1 mM dithiothreitol) and 10 μl of Mg/ATP mixed solution (500 μM ATP, 75 mM magnesium chloride) were added into a centrifuge tube, the derivative compound of Formula 1 was added or the compounds of the Examples were not added as a control group, and then 1 ng of activated B-Raf, 0.4 ng of inactivated MEK1, and 1 μg of inactivated MAPK2 were added. The solutions in the tube were collected on the bottom via centrifugation and were reacted at 30° C. for 30 minutes. After taking 4 μl of the mixed solution, the test proceeded to the next step.
(2) Phosphorylation of Matrix Protein MBP by MAPK2
10 μl of diluting solvent, 20 μg of MBP used as a matrix, and 10 μl of diluted [γ-32P]ATP (1 μCi/μL) were added into the 4 μl of the mixed solution obtained from (1). The solutions in the tube were collected on the bottom via centrifugation and were reacted at 30° C. for 30 minutes. And 25 μl of the reacted solution was put carefully on the center of a filter paper (2 cm×2 cm P81) for 30 seconds. Afterwards, the filter paper was cleaned with 0.75% phosphoric acid for 10 minutes three times and with acetone for 5 minutes one time. The filter paper was then moved to a scintillation vial and 5 ml of scintillation cocktail was added thereto. The inhibition rate (IC50) over B-Raf activity was measured by reading radioactivity through a scintillation counter while comparing to the control group.

A375P cell line = assay: B-Raf cell activity inhibition (A375P growth inhibition, MTT assay); format: cell-based; conditions: A375P human melanoma, V600E mutant of B-Raf, 72 hours
Method: To check the B-Raf cell activity inhibitory capability of the compounds of the present invention, the following experiments were conducted in A375P cell line (ATCC). […] A375 cell was maintained in DMEM supplemented with 10% fetal bovine serum, glutamine (2 mM), penicillin (100 U/mL), and streptomycin (100 μg/mL). The cell was maintained at 37° C., and in 5% CO2 and 100% humidity. To conduct the growth inhibition test, the cell was plated by using a white 384-well microplate, with 1000 cells/20 μl plated per 1 well. After 24 hours, 5 μl of 5× stock solution of drug was added. All the drugs were initially prepared with 200× stock solution in DMSO, and the final concentration of DMSO was 0.5%. The cell was incubated at 37° C. for 72 hours. For MTT assay, ‘CellTiter 96 (R) Non-Radioactive Cell Proliferation Assay (G4100)’ kit by Promega Corp. was used. 15 μl of dye solution of the Promega kit was put into each well and was cultured in the incubator for 4 hours. And 100 μl of each Solubilization/Stop Solution substance of the kit was added and fixed in the incubator for 24 hours again. And then, absorbance was measured by using a 96-well plate reader with 570 nm of absorbance.

Sequence of B-Raf (P15056 whole entry): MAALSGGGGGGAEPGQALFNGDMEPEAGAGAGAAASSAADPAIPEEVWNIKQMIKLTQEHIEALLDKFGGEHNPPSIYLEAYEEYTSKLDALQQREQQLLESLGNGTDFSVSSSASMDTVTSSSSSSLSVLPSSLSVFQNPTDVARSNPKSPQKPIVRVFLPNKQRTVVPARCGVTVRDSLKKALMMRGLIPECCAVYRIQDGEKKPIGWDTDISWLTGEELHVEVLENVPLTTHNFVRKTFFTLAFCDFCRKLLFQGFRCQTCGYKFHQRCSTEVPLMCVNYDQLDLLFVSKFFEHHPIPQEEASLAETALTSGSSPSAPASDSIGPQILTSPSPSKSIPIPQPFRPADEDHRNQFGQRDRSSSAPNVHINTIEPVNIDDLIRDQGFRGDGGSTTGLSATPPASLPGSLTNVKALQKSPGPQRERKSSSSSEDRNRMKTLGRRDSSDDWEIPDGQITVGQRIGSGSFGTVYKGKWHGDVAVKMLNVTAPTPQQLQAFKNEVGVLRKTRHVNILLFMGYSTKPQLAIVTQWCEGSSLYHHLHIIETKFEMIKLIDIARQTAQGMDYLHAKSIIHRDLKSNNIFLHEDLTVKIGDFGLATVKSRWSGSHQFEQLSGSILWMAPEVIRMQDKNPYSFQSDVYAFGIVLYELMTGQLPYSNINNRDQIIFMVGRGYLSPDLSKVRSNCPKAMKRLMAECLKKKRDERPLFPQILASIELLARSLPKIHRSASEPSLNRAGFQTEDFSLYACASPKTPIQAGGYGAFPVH

Compound | IC50 (B-Raf) [nM] | IC50 (A375P cell line) [nM]
O=S(=O)(Nc1ccc(F)c(Nc2ncccc2-c2ncnc3[nH]cnc23)c1F)c1ccc(F)c(Cl)c1 [Example 28, N-(3-(3-(9H-purin-6-yl)pyridin-2-ylamino)-2,4-difluorophenyl)-3-chloro-4-fluorobenzenesulfonamide] | 300 | 1930
O=S(=O)(Nc1ccc(F)c(Nc2ncccc2-c2ncnc3[nH]cnc23)c1F)c1cccc(Cl)c1F [Example 29, N-(3-(3-(9H-purin-6-yl)pyridin-2-ylamino)-2,4-difluorophenyl)-3-chloro-2-fluorobenzenesulfonamide] | 80 | 720
O=S(=O)(Nc1ccc(F)c(Nc2ncccc2-c2ncnc3[nH]cnc23)c1F)c1cccnc1 [Example 30, N-(3-(3-(9H-purin-6-yl)pyridin-2-ylamino)-2,4-difluorophenyl)pyridin-3-sulfonamide] | 4 | 70
Cc1ccccc1S(=O)(=O)Nc1ccc(F)c(Nc2ncccc2-c2ncnc3[nH]cnc23)c1F [Example 31, N-(3-(3-(9H-purin-6-yl)pyridin-2-ylamino)-2,4-difluorophenyl)-2-methylbenzenesulfonamide] | 50 | 670
O=S(=O)(Nc1ccc(F)c(Nc2ncccc2-c2ncnc3[nH]cnc23)c1F)c1ccccc1Cl [Example 32, N-(3-(3-(9H-purin-6-yl)pyridin-2-ylamino)-2,4-difluorophenyl)-2-chloro benzenesulfonamide] | 30 | 440
O=S(=O)(Nc1ccc(F)c(Nc2ncccc2-c2ncnc3[nH]cnc23)c1F)c1cccc(Cl)c1 [Example 33, N-(3-(3-(9H-purin-6-yl)pyridin-2-ylamino)-2,4-difluorophenyl)-3-chloro benzenesulfonamide] | 80 | 770
O=S(=O)(Nc1ccc(F)c(Nc2ncccc2-c2ncnc3[nH]cnc23)c1F)c1cccc(Cl)c1Cl [Example 34, N-(3-(3-(9H-purin-6-yl)pyridin-2-ylamino)-2,4-difluorophenyl)-2,3-chlorobenzenesulfonamide] | 40 | 500
O=S(=O)(Nc1ccc(F)c(Nc2ncccc2-c2ncnc3[nH]cnc23)c1F)c1ccccc1 [Example 35, N-(3-(3-(9H-purin-6-yl)pyridin-2-ylamino)-2,4-difluorophenyl)benzenesulfonamide] | 20 | 160

Continued, values first:

IC50 (B-Raf) [nM] | IC50 (A375P cell line) [nM] | Compound
1020 | 8370 | O=S(=O)(Nc1ccc(F)c(Nc2ncccc2-c2ncnc3[nH]cnc23)c1F)c1cccc2c1OCC2 [Example 36, N-(3-(3-(9H-purin-6-yl)pyridin-2-ylamino)-2,4-difluorophenyl)-2,3-dihydrobenzofuran-7-sulfonamide]
90 | 810 | O=S(=O)(Nc1ccc(F)c(Nc2ncccc2-c2ncnc3[nH]cnc23)c1F)c1cccc2ccoc12 [Example 37, N-(3-(3-(9H-purin-6-yl)pyridin-2-ylamino)-2,4-difluorophenyl)benzofuran-7-sulfonamide]
900 | 7190 | O=S(=O)(Nc1ccc(F)c(Nc2ncccc2-c2ncnc3[nH]cnc23)c1F)c1cccc2c1OCCC2 [Example 38, N-(3-(3-(9H-purin-6-yl)pyridin-2-ylamino)-2,4-difluorophenyl)chromane-8-sulfonamide]
400 | 2930 | Cc1nc2ccc(S(=O)(=O)Nc3ccc(F)c(Nc4ncccc4-c4ncnc5[nH]cnc45)c3F)cc2s1 [Example 39, N-(3-(3-(9H-purin-6-yl)pyridin-2-ylamino)-2,4-difluorophenyl)-2-methylbenzo[d]thiazole-6-sulfonamide]
> 10000 | > 15000 | Cn1ccc2cc(S(=O)(=O)Nc3ccc(F)c(Nc4ncccc4-c4ncnc5[nH]cnc45)c3F)ccc21 [Example 40, N-(3-(3-(9H-purin-6-yl)pyridin-2-ylamino)-2,4-difluorophenyl)-1-methyl-1H-indole-5-sulfonamide]
550 | 4200 | Cn1ccc2c(S(=O)(=O)Nc3ccc(F)c(Nc4ncccc4-c4ncnc5[nH]cnc45)c3F)cccc21 [Example 41, N-(3-(3-(9H-purin-6-yl)pyridin-2-ylamino)-2,4-difluorophenyl)-1-methyl-1H-indole-4-sulfonamide]
800 | 5870 | Cn1ccc2cccc(S(=O)(=O)Nc3ccc(F)c(Nc4ncccc4-c4ncnc5[nH]cnc45)c3F)c21 [Example 42, N-(3-(3-(9H-purin-6-yl)pyridin-2-ylamino)-2,4-difluorophenyl)-1-methyl-1H-indole-7-sulfonamide]
120 | 1370 | Cn1cc(S(=O)(=O)Nc2ccc(F)c(Nc3ncccc3-c3ncnc4[nH]cnc34)c2F)cn1 [Example 43, N-(3-(3-(9H-purin-6-yl)pyridin-2-ylamino)-2,4-difluorophenyl)-1-methyl-1H-pyrazole-4-sulfonamide]
